Measured values as given in publication PMC7144320, “Antitumor properties of certain spirooxindoles towards hepatocellular carcinoma endowed with antioxidant activity” (Journal of Enzyme Inhibition and Medicinal Chemistry, 2020).
Values joined by “and” are separate entries in the source; they are usually repeats but may differ in a detail not shown here. Equal values may be shown once.

Key:
[1] = test system: HepG2 hepatocellular carcinoma cell line; assay: MTT anti-proliferative assay, HepG2; assay type: cell-based; settings: Homo sapiens, 48 h of incubation
Description: (§1) Spirooxindoles 6a–p were evaluated for their anti-proliferative potency towards HepG2 liver cancer and PC-3 prostate cancer cell lines. Both cells lines were cultured as monolayers in DMEM supplemented with 10% foetal bovine serum (FBS), L-glutamine (2 mM), penicillin (100 U/mL) and streptomycin sulphate (100 µg/mL). Then, cells were sub-cultured with trypsine/EDTA solution, counted with haemocytometer and plated onto 96-well plates (5000 cells/well) and left overnight so as to form a semi-confluent monolayer.
(§2) Spirooxindoles 6a–p were tested for their in vitro anti-HCC activity against HepG2 cell line, and for their anti-prostate cancer activity against PC-3 cell line by the use of MTT reduction assay. The anticancer drug Adriamycin was co-assayed as the positive control.

[2] = DPPH radical scavenging assay; settings: mean ± SD of three experiments; 30 min, 517 nm
Description: The antioxidant potential of spirooxindoles 6a–p against DPPH˙ was evaluated as per previously described procedures by Brand-Williams et al.[32]. DPPH solution was prepared by dissolving 0.024 g DPPH in methanol (100 mL). In 96-well plates, × μL sample and 200-x μL DPPH solution were added. The plate was incubated for 30 min at room temperature in the dark, and finally, absorbance was recorded at 517 nm wavelength. Ascorbic acid was used as positive control. The percent radical scavenging potential was calculated for each compound via the following equation: Scavenging effect (%) = {(Absorbance of control − Absorbance of sample)/Absorbance of control} × 100.
The DPPH (2,2-diphenyl-1-picrylhydrazyl) radical scavenging activity assay is considered as one of the most common and simple methods for measuring the antioxidant ability to trap free radicals. […] Substances that have the potential to act as electron donors result in reduction of this DPPH radical to the corresponding DPPH2 disclosing their antioxidant potential. The principle of the method relies upon measuring the absorbance of the odd electrons of DPPH at 517 nm. The absorbance decreases, in the presence of free radical scavengers, proportional to the decrease of the DPPH radical concentration.

[3] = Ferric reducing antioxidant power (FRAP); settings: 593 nm, 30 min at 37 °C
Description: The Benzie and Strain method[33] was adopted to assess the ferric reducing antioxidant power (FRAP) for spirooxindoles 6a–p. Absorbance of mixtures was recorded at 593 nm after incubation for 30 min at 37 °C. FRAP results were expressed as μM Fe^2+ equivalents.
FRAP assay is a widely used antioxidant assay that uses antioxidant substances as reducing agents in a redox-linked colorimetric reaction, wherein Fe^3+ is reduced to Fe^2+ at acidic pH that results in a formation of a coloured ferrous-probe complex from a colourless ferric-probe complex. In this assay, the electron donation capacity (reflecting the electron transfer ability) of the examined compounds is evaluated.
In this study, all spirooxindoles 6a–p herein reported were evaluated for their potential FRAP. The results were expressed as µM Fe^2+ equivalents and presented in Table 6, where the higher µM Fe^2+ equivalents value means higher FRAP and subsequently higher antioxidant capacity.

[4] = test system: PC-3 prostate cancer cell line; assay: MTT anti-proliferative assay, PC-3; assay type: cell-based; settings: 48 h of incubation
Description: as §1, §2

[5] = test system: non-tumorigenic human breast MCF-10A cell line; assay: Cytotoxicity towards non-tumorigenic MCF-10A cells; assay type: cell-based
[6] = test system: HepG2 cells; assay: Annexin V-FITC/PI apoptosis assay; assay type: cell-based; settings: HepG2, 6.9 µM (IC50)
Description: (§3) The levels of the apoptotic markers caspase-3, caspase-9, p53 and Bax, as well as the anti-apoptotic marker Bcl-2 were evaluated by the use of ELISA colorimetric kits per the manufacturer’s instructions, as reported earlier[28]^,[29]. Furthermore, the pro-apoptotic potential of spirooxindole 6a towards HepG2 cells was assessed using FITC Annexin V Apoptosis Detection Kit by flow cytometry, according to the manufacturer’s protocol and referring to the reported procedures[30]^,[31].

[7] = test system: p53; assay: ELISA of p53 in HepG2 cells; assay type: cell-based; settings: HepG2 treated at IC50 (6.9 µM)
Description: as §3
(§4) The elevated Bax/Bcl-2 ratio aroused the assessment of the expression levels of the pro-apoptotic active caspase-3, caspase-9 and p53 tumour suppressor protein.

[8] = test system: HepG2 hepatocellular carcinoma cell line; assay: MTT anti-proliferative assay, HepG2; assay type: cell-based; settings: 48 h exposure, phase contrast microscopy
[9] = test system: Bax; assay: ELISA of apoptotic marker Bax in HepG2 cells; assay type: cell-based; settings: HepG2 treated at IC50 (6.9 µM)
Description: as §3
(§5) The Bax/Bcl-2 ratio is considered as a decisive value that gives a real insight to the overall pro-apoptotic impact of the examined compound.

[10] = test system: caspase-9; assay: ELISA of active caspase-9 in HepG2 cells; assay type: cell-based; settings: HepG2 treated at IC50 (6.9 µM)
Description: as §3, §4

[11] = test system: HepG2 cells; assay: Cell cycle analysis (PI staining, flow cytometry); assay type: cell-based; settings: HepG2, 6.9 µM (IC50), 24 h
Description: The samples were analysed by a flow cytometer (BectonDickinson FACSCalibur, BD, USA) and data were analysed using the CellQuest software (Becton Dickinson).
The impact of spirooxindole 6a on the normal cell cycle progression was investigated using flow cytometric analysis of the DNA ploidy in HepG2 cells. […] Alteration of the Pre-G phase and arrest of G2-M phase may imply apoptosis as a potential mechanism for 6a-induced cancer cell death.

[12] = test system: caspase-3; assay: ELISA of active caspase-3 in HepG2 cells; assay type: cell-based; settings: HepG2 treated at IC50 (6.9 µM)
Description: as §3, §4

[13] = test system: Bcl-2; assay: ELISA of anti-apoptotic marker Bcl-2 in HepG2 cells; assay type: cell-based; settings: HepG2 treated at IC50 (6.9 µM)
Description: as §3, §5

IC50 [1] | DPPH radical scavenging IC50 [2] | IC50 [4] | Compound | FRAP, µM (Fe^2+ Eq.) [3] | IC50 [5] | also measured
> 50 µM | 97.47 ± 5.62 µg/mL | > 50 µM | COc1ccc(C2=C(C#N)C3(C(=O)Nc4ccc(Cl)cc43)c3c(-c4cccs4)nn(-c4ccccc4)c3N2)cc1 (stereo not shown) [Compound 6g] | 7.79 µM (Fe^2+ Eq.) | – | –
49.1 µM | 33.43 ± 1.24 µg/mL | > 50 µM | N#CC1=C(c2ccc(Cl)cc2)Nc2c(c(-c3cccs3)nn2-c2ccccc2)C12C(=O)Nc1ccccc12 (stereo not shown) [Compound 6d] | 10.99 µM (Fe^2+ Eq.) | – | –
0.12 µM | – | 0.62 µM | COc1cccc2c1C(=O)c1c(O)c3c(c(O)c1C2=O)C[C@@](O)(C(=O)CO)C[C@@H]3O[C@H]1C[C@H](N)[C@H](O)[C@H](C)O1 [Adriamycin, reference compound] | – | – | –
– | 45.89 ± 2.39 µg/mL | – | O=C1O[C@H]([C@@H](O)CO)C(O)=C1O [Ascorbic acid, reference compound] | 13.42 µM (Fe^2+ Eq.) | – | –
32.7 µM | 40.31 ± 2.61 µg/mL | 29.3 µM | Cc1ccc(C2=C(C#N)C3(C(=O)Nc4ccc(Cl)cc43)c3c(-c4cccs4)nn(-c4ccccc4)c3N2)cc1 (stereo not shown) [Compound 6f] | 11.36 µM (Fe^2+ Eq.) | 159 µM | –
9.9 µM | 43.42 ± 3.04 µg/mL | 26.6 µM | Cc1ccc(C2=C(C#N)C3(C(=O)Nc4ccc(Br)cc43)c3c(-c4cccs4)nn(-c4ccccc4)c3N2)cc1 (stereo not shown) [Compound 6j] | 10.34 µM (Fe^2+ Eq.) | 146 µM | –
19.1 µM | 43.04 ± 2.39 µg/mL | 43.7 µM | COc1ccc(C2=C(C#N)C3(C(=O)Nc4ccccc43)c3c(-c4cccs4)nn(-c4ccccc4)c3N2)cc1 (stereo not shown) [Compound 6c] | 10.32 µM (Fe^2+ Eq.) | 141 µM | –
> 50 µM | 46.29 ± 2.52 µg/mL | 42.8 µM | COc1ccc2c(c1)C1(C(=O)N2)C(C#N)=C(c2ccc(C)cc2)Nc2c1c(-c1cccs1)nn2-c1ccccc1 (stereo not shown) [Compound 6n] | 11.58 µM (Fe^2+ Eq.) | – | –
> 50 µM | 58.82 ± 3.14 µg/mL | > 50 µM | COc1ccc(C2=C(C#N)C3(C(=O)Nc4ccc(OC)cc43)c3c(-c4cccs4)nn(-c4ccccc4)c3N2)cc1 (stereo not shown) [Compound 6o] | 11.90 µM (Fe^2+ Eq.) | – | –

More lines, now with the values behind:

Compound | IC50 [1] | DPPH radical scavenging IC50 [2] | IC50 [4] | FRAP, µM (Fe^2+ Eq.) [3] | IC50 [5] | also measured
COc1ccc2c(c1)C1(C(=O)N2)C(C#N)=C(c2ccc(Cl)cc2)Nc2c1c(-c1cccs1)nn2-c1ccccc1 (stereo not shown) [Compound 6p] | > 50 µM | 55.05 ± 3.41 µg/mL | > 50 µM | 11.18 µM (Fe^2+ Eq.) | – | –
COc1ccc2c(c1)C1(C(=O)N2)C(C#N)=C(c2ccccc2)Nc2c1c(-c1cccs1)nn2-c1ccccc1 (stereo not shown) [Compound 6m] | 30.6 µM | 28.07 ± 1.63 µg/mL | 24.3 µM | 12.13 µM (Fe^2+ Eq.) | 186 µM | –
N#CC1=C(c2ccc(Cl)cc2)Nc2c(c(-c3cccs3)nn2-c2ccccc2)C12C(=O)Nc1ccc(Cl)cc12 (stereo not shown) [Compound 6h] | 19.9 µM | 46.29 ± 2.18 µg/mL | > 50 µM | 11.35 µM (Fe^2+ Eq.) | – | –
N#CC1=C(c2ccccc2)Nc2c(c(-c3cccs3)nn2-c2ccccc2)C12C(=O)Nc1ccccc12 (stereo not shown) [Compound 6a] | 6.9 µM | 29.76 ± 1.82 µg/mL | 11.8 µM | 11.98 µM (Fe^2+ Eq.) | 94.6 µM | total increase in apoptosis with respect to control [6]: about 16.3 folds; late apoptosis (upper right quadrant), annexin-V positive cells ([6]; control 0.33%): 14.14%; early apoptosis (lower right quadrant), annexin-V positive cells ([6]; control 0.95%): 6.76%; p53, folds of control [7]: ~10.03 folds of control and ~10 folds of control; p53 expression level [7]: 774.5 pg/mL; Morphological changes of HepG2 cells [8]: cell rounding, shrinkage and monolayer disruption; Bax expression level [9]: 232.2 ng/mL; Bax, folds of control [9]: 5.7 folds of control; Bax/Bcl-2 ratio [9]: 92.5; Caspase-9, folds of control [10]: ~12.27 folds of control; Caspase-9 expression level [10]: 26.92 ng/mL; decrease of S phase with respect to control [11]: ~0.37 folds; increase of G2/M phase related to control [11]: 2.1 folds; increase of Pre-G phase related to control [11]: 11.9 folds; Caspase-3 expression level [12]: 475.9 pg/mL; Bcl-2, folds of control [13]: 0.57 folds of control; Bcl-2 expression level [13]: 2.51 ng/mL; down-regulation of Bcl-2 expression compared to control [13]: ~42%
N#CC1=C(c2ccccc2)Nc2c(c(-c3cccs3)nn2-c2ccccc2)C12C(=O)Nc1ccc(Br)cc12 (stereo not shown) [Compound 6i] | 6.3 µM | 36.38 ± 2.71 µg/mL | 17.9 µM | 11.88 µM (Fe^2+ Eq.) | 76.9 µM | Morphological changes of HepG2 cells [8]: cell rounding, shrinkage and monolayer disruption
Cc1ccc(C2=C(C#N)C3(C(=O)Nc4ccccc43)c3c(-c4cccs4)nn(-c4ccccc4)c3N2)cc1 (stereo not shown) [Compound 6b] | 21 µM | 113.45 ± 5.59 µg/mL | 34.2 µM | 6.933 µM (Fe^2+ Eq.) | 122 µM | –
N#CC1=C(c2ccc(Cl)cc2)Nc2c(c(-c3cccs3)nn2-c2ccccc2)C12C(=O)Nc1ccc(Br)cc12 (stereo not shown) [Compound 6l] | 12.7 µM | 41.36 ± 2.17 µg/mL | > 50 µM | 11.59 µM (Fe^2+ Eq.) | – | –
COc1ccc(C2=C(C#N)C3(C(=O)Nc4ccc(Br)cc43)c3c(-c4cccs4)nn(-c4ccccc4)c3N2)cc1 (stereo not shown) [Compound 6k] | 13.2 µM | 69.25 ± 4.25 µg/mL | 39.1 µM | 8.499 µM (Fe^2+ Eq.) | 136 µM | –
N#CC1=C(c2ccccc2)Nc2c(c(-c3cccs3)nn2-c2ccccc2)C12C(=O)Nc1ccc(Cl)cc12 (stereo not shown) [Compound 6e] | 8.4 µM | 36.03 ± 1.37 µg/mL | 13.5 µM | 10.12 µM (Fe^2+ Eq.) | 69.7 µM | Morphological changes of HepG2 cells [8]: cell rounding, shrinkage and monolayer disruption
